Laboratory results from ChEMBL document CHEMBL1811886 (J Med Chem, 2011).

How the values were obtained:
Histamine H3 receptor [1] = molecular target: T1, Histamine H3 receptor (Rattus norvegicus, UniProt Q9QYN8); experiment: Displacement of [3H]NAMH from rat histamine H3 receptor expressed in CHO cells; format: cell-based
[2] = Distribution coefficient log D of the compound at pH 7.4; format: physicochemical; details: octanol/water
Salmonella typhimurium = experiment: Mutagenic activity in Salmonella Typhimurium by Ames test; format: toxicity, organism-based; details: salmonella enterica subsp. enterica serovar typhimurium
[3] = molecular target: Muscarinic acetylcholine receptor M2 (Homo sapiens, UniProt P08172); experiment: Inhibition of muscarinic M2 receptor
Rattus norvegicus [4] = experiment: Toxicity in rat central nervous system assessed as changes in behavioral response at 10 to 300 mg/kg, po measured from 15 mins through 6 hrs by Irwin test; format: organism-based; parameters: dose 10-300 mg/kg, route oral; details: in vivo
Rhesus monkey [5] = experiment: Toxicity in monkey assessed as changes in respiratory function after 28 days; format: organism-based, Macaca mulatta; details: in vivo, 672 h
[6] = Mutagenic activity in human peripheral blood lymphocytes by micronucleus test in absence metabolic activation; format: toxicity, cell-based; details: lymphocyte
[7] = Inhibition of PDE3
[8] = molecular target: T2, Sodium-dependent noradrenaline transporter (Homo sapiens, UniProt P23975); experiment: Inhibition of recombinant human norepinephrine transporter
Rattus norvegicus [9] = experiment: Inhibition of RAMH-induced dipsogenia in Long Evans rat administered as po 15 mins prior to RAMH challenge; format: functional
[10] = molecular target: Poly [ADP-ribose] polymerase 1 (Homo sapiens, UniProt P09874); experiment: Inhibition of human PARP1
[11] = molecular target: T3, Sodium-dependent dopamine transporter (Homo sapiens, UniProt Q01959); experiment: Inhibition of dopamine transporter
[12] = molecular target: T2, Sodium-dependent noradrenaline transporter; experiment: Inhibition of norepinephrine transporter
[13] = molecular target: T3, Sodium-dependent dopamine transporter; experiment: Inhibition of recombinant human dopamine transporter
[14] = Apparent permeability across human Caco2 cell membrane; format: ADME, cell-based; details: Caco-2
[15] = Aqueous solubility of the compound at pH 2; format: physicochemical
Histamine H3 receptor [16] = molecular target: T1, Histamine H3 receptor; experiment: Antagonist activity at histamine H3 receptor in rat cortical membrane; format: functional, cell membranes
Histamine H3 receptor [17] = molecular target: T1, Histamine H3 receptor; experiment: Inverse agonist activity at rat histamine H3 receptor assessed as inhibition of R-alpha-methylhistamine induced [35S]GTPgammaS binding; format: functional
Rhesus monkey [18] = experiment: Toxicity in monkey assessed as changes in cardiovascular function after 28 days; format: organism-based, Macaca mulatta, Heart; details: in vivo, 672 h
[19] = Aqueous solubility of the compound at pH 7.4; format: physicochemical
[20] = molecular target: Alpha-1A adrenergic receptor (Homo sapiens, UniProt P35348); experiment: Inhibition of adrenergic alpha 1A receptor
Histamine H3 receptor [21] = molecular target: T4, Histamine H3 receptor (Homo sapiens, UniProt Q9Y5N1); experiment: Inverse agonist activity at human histamine H3 receptor assessed as inhibition of R-alpha-methylhistamine induced [35S]GTPgammaS binding; format: functional
[22] = Drug level in rat brain at 100 mg/kg, po administered after 1 hr post dosing; format: ADME, organism-based; parameters: dose 100 mg/kg, route oral; details: read-out: Drug uptake
Rattus norvegicus [23] = experiment: Inhibition of RAMH-induced dipsogenia in ip dosed Long Evans rat administered 15 mins prior to RAMH challenge; format: functional
Rattus norvegicus [24] = species on record: Rattus norvegicus; experiment: Toxicity in rat up to 28 days; format: organism-based; details: in vivo, 672 h
Rattus norvegicus [25] = experiment: Toxicity in rat central nervous system assessed as side effects up to 100 mg/kg, po measured from 15 mins through 6 hrs by Irwin test; format: organism-based; parameters: dose 100 mg/kg, route oral; details: in vivo
[26] = Mutagenic activity in human peripheral blood lymphocytes by micronucleus test in presence metabolic activation; format: toxicity, cell-based; details: lymphocyte
[27] = Mutagenic activity in Salmonella Typhimurium by Ames test in presence of rat liver S9 fraction; format: toxicity, subcellular; details: salmonella enterica subsp. enterica serovar typhimurium
Histamine H3 receptor [28] = molecular target: T4, Histamine H3 receptor; experiment: Displacement of [3H]NAMH from human histamine H3 receptor expressed in CHO cells; format: cell-based
Rhesus monkey [29] = experiment: Toxicity in monkey up to 28 days; format: organism-based, Macaca mulatta; details: in vivo, 672 h
[30] = Dissociation constant, pKa of the compound; format: physicochemical

T1 sequence (Q9QYN8 whole entry): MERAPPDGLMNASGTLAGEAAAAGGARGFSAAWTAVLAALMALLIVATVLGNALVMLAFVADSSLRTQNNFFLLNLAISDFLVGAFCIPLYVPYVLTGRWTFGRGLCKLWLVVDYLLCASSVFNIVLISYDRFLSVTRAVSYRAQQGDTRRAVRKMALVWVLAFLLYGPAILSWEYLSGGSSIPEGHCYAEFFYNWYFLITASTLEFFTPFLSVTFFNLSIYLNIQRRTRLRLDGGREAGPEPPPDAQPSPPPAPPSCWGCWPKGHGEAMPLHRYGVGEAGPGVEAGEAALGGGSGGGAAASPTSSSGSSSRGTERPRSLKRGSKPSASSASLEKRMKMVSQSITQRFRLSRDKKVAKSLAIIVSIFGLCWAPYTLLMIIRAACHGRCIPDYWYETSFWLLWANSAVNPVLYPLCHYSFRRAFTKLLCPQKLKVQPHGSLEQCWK
T4 sequence (Q9Y5N1 whole entry): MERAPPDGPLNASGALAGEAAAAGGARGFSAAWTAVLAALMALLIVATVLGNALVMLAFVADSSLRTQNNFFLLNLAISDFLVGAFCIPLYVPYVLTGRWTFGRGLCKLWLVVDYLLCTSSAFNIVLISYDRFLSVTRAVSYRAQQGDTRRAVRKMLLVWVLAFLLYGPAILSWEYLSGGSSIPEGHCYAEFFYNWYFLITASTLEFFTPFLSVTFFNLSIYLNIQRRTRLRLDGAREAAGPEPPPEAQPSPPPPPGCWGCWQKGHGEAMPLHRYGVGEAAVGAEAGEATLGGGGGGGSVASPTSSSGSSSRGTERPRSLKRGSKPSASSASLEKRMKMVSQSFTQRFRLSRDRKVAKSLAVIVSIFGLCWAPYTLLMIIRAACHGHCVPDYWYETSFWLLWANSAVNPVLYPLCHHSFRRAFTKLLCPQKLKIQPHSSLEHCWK
T3 sequence (Q01959 whole entry): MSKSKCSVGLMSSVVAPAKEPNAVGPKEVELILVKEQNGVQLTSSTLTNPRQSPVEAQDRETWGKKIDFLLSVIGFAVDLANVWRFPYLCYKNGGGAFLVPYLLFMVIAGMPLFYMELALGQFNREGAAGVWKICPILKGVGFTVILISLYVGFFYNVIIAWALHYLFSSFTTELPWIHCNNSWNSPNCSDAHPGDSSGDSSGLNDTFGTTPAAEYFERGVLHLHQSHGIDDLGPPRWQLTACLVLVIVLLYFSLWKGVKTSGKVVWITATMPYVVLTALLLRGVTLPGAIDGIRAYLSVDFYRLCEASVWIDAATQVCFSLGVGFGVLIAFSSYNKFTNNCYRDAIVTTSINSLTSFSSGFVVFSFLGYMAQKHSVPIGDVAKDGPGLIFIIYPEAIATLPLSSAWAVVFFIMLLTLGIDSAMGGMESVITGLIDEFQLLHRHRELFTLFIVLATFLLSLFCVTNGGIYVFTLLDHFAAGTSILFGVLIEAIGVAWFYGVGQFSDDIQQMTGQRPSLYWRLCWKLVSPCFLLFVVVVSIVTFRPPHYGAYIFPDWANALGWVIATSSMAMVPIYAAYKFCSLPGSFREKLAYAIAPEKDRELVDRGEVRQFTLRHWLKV
T2 sequence (P23975 whole entry): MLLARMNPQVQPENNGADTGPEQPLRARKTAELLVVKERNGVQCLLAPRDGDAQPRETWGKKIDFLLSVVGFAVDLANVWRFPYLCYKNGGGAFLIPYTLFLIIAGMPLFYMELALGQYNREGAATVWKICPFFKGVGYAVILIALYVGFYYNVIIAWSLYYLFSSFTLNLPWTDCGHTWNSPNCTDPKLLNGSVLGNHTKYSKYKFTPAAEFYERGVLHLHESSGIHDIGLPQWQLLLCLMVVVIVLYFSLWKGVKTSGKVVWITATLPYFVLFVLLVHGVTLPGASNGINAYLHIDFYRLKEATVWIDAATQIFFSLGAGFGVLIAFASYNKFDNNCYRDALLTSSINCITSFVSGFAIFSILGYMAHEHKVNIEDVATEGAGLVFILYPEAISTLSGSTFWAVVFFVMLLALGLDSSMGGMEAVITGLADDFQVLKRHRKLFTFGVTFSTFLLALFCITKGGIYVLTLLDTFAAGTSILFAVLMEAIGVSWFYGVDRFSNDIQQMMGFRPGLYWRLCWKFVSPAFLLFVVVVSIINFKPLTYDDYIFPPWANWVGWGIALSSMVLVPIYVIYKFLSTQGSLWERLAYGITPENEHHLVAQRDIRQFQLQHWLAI
Sequence of Alpha-1A adrenergic receptor (P35348 whole entry): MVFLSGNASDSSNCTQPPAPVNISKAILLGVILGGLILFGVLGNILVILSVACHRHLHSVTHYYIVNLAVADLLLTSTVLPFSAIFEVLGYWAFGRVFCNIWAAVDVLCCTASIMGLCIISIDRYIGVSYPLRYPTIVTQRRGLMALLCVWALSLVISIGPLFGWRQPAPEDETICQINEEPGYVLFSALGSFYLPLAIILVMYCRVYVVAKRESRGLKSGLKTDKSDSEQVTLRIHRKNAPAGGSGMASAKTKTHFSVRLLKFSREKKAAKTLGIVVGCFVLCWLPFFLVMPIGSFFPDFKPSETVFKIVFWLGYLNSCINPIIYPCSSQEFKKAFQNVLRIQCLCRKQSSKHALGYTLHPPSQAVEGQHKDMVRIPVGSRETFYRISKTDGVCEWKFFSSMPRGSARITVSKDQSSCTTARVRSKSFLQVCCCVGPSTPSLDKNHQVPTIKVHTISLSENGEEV
Sequence of Poly [ADP-ribose] polymerase 1 (P09874 whole entry): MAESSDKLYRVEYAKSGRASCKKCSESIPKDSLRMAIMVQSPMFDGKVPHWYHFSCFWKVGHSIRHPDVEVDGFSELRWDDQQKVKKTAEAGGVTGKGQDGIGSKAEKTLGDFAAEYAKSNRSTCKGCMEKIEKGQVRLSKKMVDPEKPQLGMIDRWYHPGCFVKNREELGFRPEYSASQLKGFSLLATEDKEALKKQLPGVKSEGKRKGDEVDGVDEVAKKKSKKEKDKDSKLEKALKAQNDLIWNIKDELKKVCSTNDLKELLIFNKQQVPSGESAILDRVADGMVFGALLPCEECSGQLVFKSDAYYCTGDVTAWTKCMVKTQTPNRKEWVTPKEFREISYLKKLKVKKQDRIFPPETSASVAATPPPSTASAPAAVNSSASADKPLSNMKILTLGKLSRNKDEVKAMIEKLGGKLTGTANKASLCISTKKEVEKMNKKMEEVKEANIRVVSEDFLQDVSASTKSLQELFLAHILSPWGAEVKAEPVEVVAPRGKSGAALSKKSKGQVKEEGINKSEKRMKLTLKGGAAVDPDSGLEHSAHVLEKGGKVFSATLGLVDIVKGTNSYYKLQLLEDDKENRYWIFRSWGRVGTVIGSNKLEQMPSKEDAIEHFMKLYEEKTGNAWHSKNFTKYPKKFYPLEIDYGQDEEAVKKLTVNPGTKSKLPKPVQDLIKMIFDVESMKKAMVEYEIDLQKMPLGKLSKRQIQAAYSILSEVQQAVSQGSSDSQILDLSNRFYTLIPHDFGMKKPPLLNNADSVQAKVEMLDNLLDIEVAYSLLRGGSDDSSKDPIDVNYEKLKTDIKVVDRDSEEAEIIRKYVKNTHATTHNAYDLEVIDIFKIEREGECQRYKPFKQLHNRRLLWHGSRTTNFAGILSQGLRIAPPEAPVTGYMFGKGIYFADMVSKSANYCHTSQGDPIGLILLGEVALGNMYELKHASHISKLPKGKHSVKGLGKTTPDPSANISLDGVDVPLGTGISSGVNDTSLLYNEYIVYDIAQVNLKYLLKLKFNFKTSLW
Sequence of Muscarinic acetylcholine receptor M2 (P08172 whole entry): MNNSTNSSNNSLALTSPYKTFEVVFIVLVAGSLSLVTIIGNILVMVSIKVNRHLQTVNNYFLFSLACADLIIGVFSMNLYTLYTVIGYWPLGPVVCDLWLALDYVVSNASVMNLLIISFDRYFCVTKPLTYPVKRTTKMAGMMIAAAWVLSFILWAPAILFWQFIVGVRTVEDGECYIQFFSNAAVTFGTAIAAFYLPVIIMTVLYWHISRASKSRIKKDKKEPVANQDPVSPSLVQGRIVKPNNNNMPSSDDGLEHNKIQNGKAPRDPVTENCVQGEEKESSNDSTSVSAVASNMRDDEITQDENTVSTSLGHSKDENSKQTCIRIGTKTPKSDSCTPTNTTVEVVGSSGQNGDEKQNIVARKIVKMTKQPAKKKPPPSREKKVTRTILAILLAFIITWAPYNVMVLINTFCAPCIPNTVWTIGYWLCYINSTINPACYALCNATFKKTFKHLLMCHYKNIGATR

With `C[C@@H]1CCCN1CCCOc1ccc(-c2ccc(=O)[nH]n2)cc1` [IRDABISANT] the Ki (Histamine H3 receptor [1]) was 0.0072 µM, the logD [2] was 0.6 and the Activity (Salmonella typhimurium) was “Non-toxic”. For the same compound, the Ki [3] was 3.7 µM, the Activity (Rattus norvegicus [4]) was “Non-toxic” and the Activity (Rhesus monkey [5]) was “Non-toxic”. For the same compound, the Activity [6] was “Non-toxic”, the IC50 [7] was 15 µM and the IC50 [8] was 17.5 µM. The ED50 (Rattus norvegicus [9]) was 0.01 mg/kg, the IC50 [10] was greater than 30 µM and the Ki [11] was 11 µM. The Ki [12] was 10 µM, the IC50 [13] was 9.4 µM and the Papp [14] was 13.5 ×10⁻⁶ cm/s. The solubility [15] was greater than 2000 µg/mL, the Ki (Histamine H3 receptor [16]) was 0.0027 µM and the EC50 (Histamine H3 receptor [17]) was 0.002 µM. The Activity (Rhesus monkey [18]) was “Non-toxic”, the solubility [19] was greater than 2000 µg/mL and the Ki [20] was 9.8 µM. It also gave an EC50 (Histamine H3 receptor [21]) of 0.0011 µM, a concentration at 1 h [22] of 36 µM and an ED50 (Rattus norvegicus [23]) of 0.06 mg/kg. For the same compound, the Activity (Rattus norvegicus [24]) was “Non-toxic”, the Activity (Rattus norvegicus [25]) was “Non-toxic” and the Activity [26] was “Non-toxic”. The Activity [27] was “Non-toxic”, the Ki (Histamine H3 receptor [28]) was 0.002 µM and the Activity (Rhesus monkey [29]) was “Non-toxic”. It also gave a pKa [30] of 10.2.
